Test results: patent publication US7659284B2, “Thiazolopyridine kinase inhibitors” (Janssen Pharmaceutica NV, priority 2004, dated 2010)
pIC50: −log10 of the molar value. Where “and” joins values, the source holds several entries; their conditions need not be identical. Identical values can stand only once.

How the values were obtained:
Format in all cases: biochemical
[1] = biological target: T1, EGFR (Homo sapiens, UniProt P00533); assay: EGFR Kinase Assay (GST-EGFR, 33P-ATP, Streptavidin Flashplate); details: for pIC50: GST-EGFR intracellular portion, 5 μM ATP
T1 construct: started at nucleotide 2189 (corresponding to amino acid 667) and ended at the termination codon; made in house; host or cells: Sf9 insect cells (baculovirus)
Source text: The EGFR kinase used was a fusion of Glutathione-S-Transferase (GST) and a PCR amplified intracellular portion of EGFR (NM_005228). The intracellular portion of EGFR started at nucleotide 2189 (corresponding to amino acid 667) and ended at the termination codon. The portion was PCR amplified with primers that added the lambda attB sequences to each end, recombined into an entry vector, then into a GST destination vector (as described in Gateway Technologies Manual by Invitrogen Corporation, Carlsbad, Calif.).
The destination vector was recombined in the DH10BAC strain of bacteria to produce a bacmid. The bacmid was transfected into Sf 9 cells and the supernatant containing the baculovirus was collected. The GSTEGFR protein was purified using large cultures of Sf 9 cells infected with stock virus. After an appropriate period of time, the cells were collected and lysed. The GSTEGFR was then purified from the lysate on Glutathione-Sepharose columns (as described by Amersham Biosciences, Buckinghamshire, United Kingdom).
The EGFR substrate was prepared by biotinylating polyGluTyr (128 mg) (Sigma, St. Louis, Mo.) in a 1×PBS buffer incubated together with a 12-fold molar excess of Sulfo-NHS-LC-Biotin on ice for at least 2 hrs. The free biotin was separated from the biotinylated polyGluTyr on a gel filtration column.
A mixture of a 10× kinase buffer (500 mM Tris at pH 8.0, 100 mM Magnesium Chloride and 1 mM Sodium Vanadate), DTT (1 mM final from 500 mM stock), ATP (5 μM final from 10 mM stock), biotinylated polyGluTyr (10 μg/μL stock), γ-^33P ATP (10 μCi/μL stock) and water was added to each well (90 μL/well) of a Streptavidin Flashplate (Perkin Elmer, Wellesley, Mass.).
Test compound in 100% DMSO (2 μL) was added to the appropriate wells. Diluted GSTEGFR (1:300 dilution in 50 mM Tris at pH 8.0 and 0.1% bovine serum albumin) (10 μL) was added to the wells to initiate the reactions.
The plates were incubated at 30° C. for 1 hr with shaking. The reacted contents were removed and the plates were sequentially washed three times with a 1×PBS stop buffer (300 μL without Magnesium and Calcium) and 100 mM EDTA. After the final wash, the same stop buffer (200 μL) was added to the wells. The plates were then sealed and read on the TopCount scintillation counter.
Test compounds were assayed in triplicate at 16 concentrations at half-log dilutions starting at 200 uM. A maximum and minimum signal for the assay was determined on each plate. The percent inhibition of a test compound was calculated accord to the formula
For a series of test concentrations, the IC50 was derived by graphing percent inhibition against the log of the concentrations tested for a given compound. For those compounds without an IC50, the percent inhibition results are shown at a test concentration of 2 μM.

[2] = biological target: T2, c-Src kinase (human) (Homo sapiens, UniProt P12931); assay: c-Src Kinase Assay; details: for inhibition at 1 µM: test concentration (1) 1 μM, read-out: c-SRC percent inhibition; for pIC50: human c-Src, 5 μM ATP
T2 construct: purchased Upstate Biotechnology, Lake Placid, N.Y
Description: […] a 10× kinase buffer (80 mM MOPS at pH 7.0, 2 mM EDTA and 100 mM Magnesium Chloride), ATP (5 μM final from a 10 mM stock), a Cdc2 peptide KVEKIGEGTYGVVYK (100 μM final from a 2.5 mM stock), γ-^33P ATP (10 μCi/μL stock) and water (20 μL/well) was added to each well of a Streptavidin Flashplate.
Test compound in 100% DMSO (0.5 μL) was added to the appropriate wells. Diluted c-Src kinase (human) (Upstate Biotechnology, Lake Placid, N.Y.) (diluted in a buffer consisting of 20 mM MOPS at pH 7.0, 1 mM EDTA, β-mercaptoethanol (0.1%), Brij-35 (0.01%), glycerol (5%), and 1 mg/mL bovine serum albumin) (2.5 μL) was added to the wells to initiate the reactions. The reaction plates were incubated at 30° C. for 40 min. The reaction was terminated by the addition of a 3% phosphoric acid solution (5 μL). The reaction product (10 μL) was spotted onto a P30 filtermat and washed for 5 minutes in phosphoric acid (75 mM). The wash sequence was repeated two more times, followed with one final wash in methanol. The plates were then dried, sealed and read on the TopCount scintillation counter after adding 30 μL scintillation fluid.
The percent inhibitions and IC50 values were derived according to the procedure described in Example 52. For those compounds without an IC50, the percent inhibition results are shown at a test concentration of ^(1)1 μM or ^(2)1.6 μM.

[3] = biological target: T3, Lyn kinase (human) (Homo sapiens, UniProt P07948); assay: Lyn Kinase Assay (h); details: for inhibition at 1 µM: test concentration (1) 1 μM; for pIC50: (h) human Lyn, 5 μM ATP
T3 construct: purchased Upstate Biotechnology, Lake Placid, N.Y
Description: A mixture of a 10× kinase buffer (500 mM MOPS at pH 7.5, 1 mM EGTA, 1 mM Sodium Vanadate, 1% β-mercaptoethanol and 100 mM Magnesium Acetate), ATP (5 μM final from a 10 mM stock), polyGluTyr (0.1 mg/mL final from a 1 mg/mL stock), γ-^33P ATP (10 μCi/μL stock) and water (20 μL/well) was added to each well of a Streptavidin Flashplate.
Test compound in 100% DMSO (0.5 μL) was added to the appropriate wells. Diluted Lyn kinase (human) (Upstate Biotechnology, Lake Placid, N.Y.) (diluted in a buffer consisting of 50 mM Tris at pH 7.5, 0.1 mM EGTA, Sodium Vanadate (0.1 mM), β-mercaptoethanol (0.1%) and 1 mg/mL bovine serum albumin) (2.5 μL) was added to the wells to initiate the reactions.
The reaction plates were incubated at 30° C. for 40 min. The reaction was terminated by the addition of a 3% phosphoric acid solution (5 μL). The reaction product (10 μL) was spotted onto a P30 filtermat and washed for 5 minutes in phosphoric acid (75 mM). The wash sequence was repeated two more times, followed with one final wash in methanol. The plates were then dried, sealed and read on the TopCount scintillation counter after adding 30 μL scintillation fluid.
The percent inhibitions and IC50 values were derived according to the procedure described in Example 52. For those compounds without an IC50, the percent inhibition results are shown at a test concentration of ^(1) 1 μM or ^(2) 1.6 μM.

[4] = biological target: LYN (m) (Mus musculus, UniProt P25911); assay: Lyn Kinase Assay (m); details: for inhibition at 1 µM: test concentration (1) 1 μM, read-out: LYN percent inhibition (m)
[5] = biological target: T4, HER-2 (Homo sapiens, UniProt P04626); assay: HER-2 Kinase Assay; details: GST-HER2 kinase, 1 μM ATP
T4 construct: the nucleotides encoding amino acids 679 to 1255 of HER-2; HIS6 with thrombin site (N); purchased Proqinase (Freiburg, Germany)
Description: The HER-2 kinase used was purified at Proqinase (Freiburg, Germany) from a construct that consisted of a fusion of GST (Glutathione-S-Transferase), HIS6-Thrombin and the nucleotides encoding amino acids 679 to 1255 of HER-2.
A mixture of a 10× kinase reaction buffer (600 mM Hepes at pH 7.5, 30 mM Magnesium Chloride, 0.03 mM Sodium Vanadate and 500 μg/mL PEG 20,000), DTT (1.2 mM final from a 10 mM stock), ATP (1 μM from a 10 mM stock), biotinylated polyGluTyr (1.5 ng/μL final from stock of 1 μg/μL prepared by Upstate Biotechnologies, Lake Placid, N.Y.), Manganese Chloride (3 mM final from a 1 M stock), γy-^33P-ATP (10 μCi/μL stock) and water (70 μL/well) was added to each well of a Streptavidin Flashplate (Cat. # SMP103, NEN, Boston, Mass.).
Test compound stock (1 μL) was added to the appropriate wells. Diluted GSTHER2 kinase (6.7 ng/μL diluted into 50 mM Tris-HCl at pH 8.0 and 0.1% bovine serum albumin) (30 μL) was added (total volume of 200 ng/well) to initiate the reactions.
The reaction plates were incubated at 30° C. for 1 hr. The reaction was terminated by aspirating the reaction mixture from the plate wells and washing the wells three times with a 1×PBS stop buffer (300 μL) and 100 mM EDTA. After the final wash, the same stop buffer (200 μL) was again added to the wells. The plates were then sealed and read on the TopCount scintillation counter.
The IC50 was derived according to the procedure described in Example 52. For those compounds without an IC50, the percent inhibition results are shown at a test concentration of 1 μM.

[6] = (h), read-out: LYN percent inhibition (h)

T3 sequence (P07948 whole entry): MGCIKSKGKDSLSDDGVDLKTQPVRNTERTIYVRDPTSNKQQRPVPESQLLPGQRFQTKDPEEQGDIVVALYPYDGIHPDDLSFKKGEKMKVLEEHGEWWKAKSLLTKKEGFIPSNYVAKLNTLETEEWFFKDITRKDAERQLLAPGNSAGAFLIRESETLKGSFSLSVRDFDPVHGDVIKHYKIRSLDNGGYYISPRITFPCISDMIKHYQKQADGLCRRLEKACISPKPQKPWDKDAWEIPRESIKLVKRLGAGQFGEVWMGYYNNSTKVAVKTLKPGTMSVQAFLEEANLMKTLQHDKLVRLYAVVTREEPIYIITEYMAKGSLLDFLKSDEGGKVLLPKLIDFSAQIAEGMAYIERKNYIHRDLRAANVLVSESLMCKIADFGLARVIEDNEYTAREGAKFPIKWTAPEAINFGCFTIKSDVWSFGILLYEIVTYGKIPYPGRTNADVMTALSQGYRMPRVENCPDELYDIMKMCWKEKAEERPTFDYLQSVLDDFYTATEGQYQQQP
T2 sequence (P12931 whole entry): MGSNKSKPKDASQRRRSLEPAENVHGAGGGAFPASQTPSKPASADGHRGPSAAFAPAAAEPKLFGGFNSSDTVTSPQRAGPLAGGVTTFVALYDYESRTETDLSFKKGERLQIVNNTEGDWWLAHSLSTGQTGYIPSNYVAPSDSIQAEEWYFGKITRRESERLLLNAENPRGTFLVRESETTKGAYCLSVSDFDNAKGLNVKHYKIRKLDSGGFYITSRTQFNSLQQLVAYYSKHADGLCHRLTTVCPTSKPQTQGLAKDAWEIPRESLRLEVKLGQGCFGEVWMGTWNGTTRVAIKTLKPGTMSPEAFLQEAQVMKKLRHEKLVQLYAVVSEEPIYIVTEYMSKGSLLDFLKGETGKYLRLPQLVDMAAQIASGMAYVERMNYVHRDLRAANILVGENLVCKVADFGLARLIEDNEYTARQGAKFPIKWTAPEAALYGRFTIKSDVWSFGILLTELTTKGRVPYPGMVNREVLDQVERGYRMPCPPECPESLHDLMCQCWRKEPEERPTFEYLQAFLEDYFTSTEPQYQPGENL
T1 sequence (P00533 667-1210 limits assumed): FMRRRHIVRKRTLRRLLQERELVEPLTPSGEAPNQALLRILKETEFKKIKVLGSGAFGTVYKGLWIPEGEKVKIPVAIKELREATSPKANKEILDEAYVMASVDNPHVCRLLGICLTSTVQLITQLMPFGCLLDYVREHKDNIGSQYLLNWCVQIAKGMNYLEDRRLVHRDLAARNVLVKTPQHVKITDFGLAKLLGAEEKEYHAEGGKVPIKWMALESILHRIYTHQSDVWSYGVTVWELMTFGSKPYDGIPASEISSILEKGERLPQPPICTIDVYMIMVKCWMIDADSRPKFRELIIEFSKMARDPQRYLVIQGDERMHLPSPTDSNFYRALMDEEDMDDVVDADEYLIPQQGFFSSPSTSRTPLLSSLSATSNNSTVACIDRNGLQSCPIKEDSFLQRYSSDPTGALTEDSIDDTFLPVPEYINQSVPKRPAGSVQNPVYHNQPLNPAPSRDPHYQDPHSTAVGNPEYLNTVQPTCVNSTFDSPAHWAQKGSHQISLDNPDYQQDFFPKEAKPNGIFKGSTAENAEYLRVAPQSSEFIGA
T4 sequence (P04626 679-1255): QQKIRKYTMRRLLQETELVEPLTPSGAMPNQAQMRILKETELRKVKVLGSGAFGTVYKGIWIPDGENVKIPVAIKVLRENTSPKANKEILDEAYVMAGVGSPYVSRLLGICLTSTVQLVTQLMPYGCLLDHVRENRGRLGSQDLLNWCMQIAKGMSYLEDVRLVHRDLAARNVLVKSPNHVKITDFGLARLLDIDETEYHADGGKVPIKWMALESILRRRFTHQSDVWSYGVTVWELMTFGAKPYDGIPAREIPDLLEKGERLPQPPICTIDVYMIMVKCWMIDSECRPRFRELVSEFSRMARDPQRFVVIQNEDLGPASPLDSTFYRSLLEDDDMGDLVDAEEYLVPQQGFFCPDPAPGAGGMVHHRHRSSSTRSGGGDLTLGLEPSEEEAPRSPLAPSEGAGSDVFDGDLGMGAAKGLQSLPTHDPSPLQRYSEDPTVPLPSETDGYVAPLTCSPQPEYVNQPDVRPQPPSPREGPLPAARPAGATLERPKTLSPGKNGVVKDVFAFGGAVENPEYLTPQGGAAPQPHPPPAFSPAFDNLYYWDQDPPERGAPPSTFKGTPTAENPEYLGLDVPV
Chain of LYN (m) (P25911 whole entry): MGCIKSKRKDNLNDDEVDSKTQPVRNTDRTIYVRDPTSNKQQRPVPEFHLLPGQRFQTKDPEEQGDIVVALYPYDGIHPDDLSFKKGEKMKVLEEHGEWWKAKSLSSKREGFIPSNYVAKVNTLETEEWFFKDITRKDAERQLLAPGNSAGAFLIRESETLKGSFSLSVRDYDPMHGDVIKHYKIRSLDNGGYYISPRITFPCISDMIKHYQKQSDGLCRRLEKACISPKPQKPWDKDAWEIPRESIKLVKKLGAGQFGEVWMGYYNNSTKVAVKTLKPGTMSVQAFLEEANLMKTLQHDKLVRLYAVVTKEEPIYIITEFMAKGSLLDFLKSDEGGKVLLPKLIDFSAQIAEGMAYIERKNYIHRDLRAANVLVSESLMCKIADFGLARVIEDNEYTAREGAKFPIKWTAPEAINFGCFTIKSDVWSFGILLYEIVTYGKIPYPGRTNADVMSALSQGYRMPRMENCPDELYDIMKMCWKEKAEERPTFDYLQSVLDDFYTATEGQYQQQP

SMILES | pIC50 [1] | inhibition at 1 µM [2] | inhibition at 1 µM [3, 6] | inhibition at 1 µM [4] | pIC50 [5] | pIC50 [2] | pIC50 [3] | pIC50 [4] | inhibition at 2 µM ([1]; test concentration of 2 μM, read-out: EGFR percent inhibition) | c-SRC percent inhibition ([2]; test concentration not marked (1 μM or 1.6 μM)) | inhibition at 1.6 µM ([3]; (h), test concentration (2) 1.6 μM, read-out: LYN percent inhibition (h))
N#Cc1cnc2nc(Nc3ccc(CN4CCCC4)cc3)sc2c1Nc1ccc(OCc2cccc(F)c2)c(Cl)c1 [Cpd 24, 7-[3-chloro-4-(3-fluoro-benzyloxy)-phenylamino]-2-(4-pyrrolidin-1-ylmethyl-phenylamino)-thiazolo[4,5-b]pyridine-6-carbonitrile] | 7.48 | 15% | -5% | 10% | 5.69 |  |  |  |  |  | 
N#Cc1cnc2nc(Nc3ccc(CN4CCOCC4)cc3)sc2c1Nc1c(Cl)ccc2c1OCO2 [Cpd 20, 7-(5-chloro-benzo[1,3]dioxol-4-ylamino)-2-(4-morpholin-4-ylmethyl-phenylamino)-thiazolo[4,5-b]pyridine-6-carbonitrile] | 6.42 and 6.03 |  |  |  |  | 7.96 | 7.96 | 8.05 |  |  | 
CN1CCN(Cc2ccc(Nc3nc4ncc(C#N)c(Nc5ccc(Oc6ccccc6)cc5)c4s3)cc2)CC1 [Cpd 51, 2-[4-(4-methyl-piperazin-1-ylmethyl)-phenylamino]-7-(4-phenoxy-phenylamino)-thiazolo[4,5-b]pyridine-6-carbonitrile] |  |  |  |  | < 4.00 |  |  |  | 0% | 0% | 37%
CN(C)Cc1ccc(Nc2nc3ncc(C#N)c(Nc4cccc5c4OC(F)(F)O5)c3s2)cc1 [Cpd 25, 7-(2,2-difluoro-benzo[1,3]dioxol-4-ylamino)-2-(4-dimethylaminomethyl-phenylamino)-thiazolo[4,5-b]pyridine-6-carbonitrile] | 7.36 |  |  |  | 4.03 | 5.85 | 6.65 | 6.10 |  |  | 
C#Cc1cccc(Nc2c(C#N)cnc3nc(Nc4ccc(S(=O)(=O)NCCCN(C)C)cc4)sc23)c1 [Cpd 23, 4-[6-cyano-7-(3-ethynyl-phenylamino)-thiazolo[4,5-b]pyridin-2-ylamino]-N-(3-dimethylamino-propyl)-benzenesulfonamide] | 7.69 | -2% | 8% | 42% |  |  |  |  |  |  | 
